Where two headings read alike, the source gives them in different places.
Tests used:
A2A receptor = target: T1, A2A receptor (Homo sapiens, UniProt P29274); assay: Inhibition of cAMP production in HEK cells (LANCE Ultra cAMP, TR-FRET); assay type: cell-based; settings: HEK-293 cells with stable transfection of A2A receptor
T1 construct: host or cells: HEK-293
Experimental: When the A2A receptor is activated, is induces the production of cAMP. The present assay thus aims at showing that cAMP production is inhibited in HEK cells in response to their exposure to the compounds of the invention. HEK-293 cells with a stable transfection of A2A receptor were bought from PerkinElmer® (#ES-011-C). Cells were cultured in EMEM medium (Lonza, #BE12-611F) supplemented with 10% FBS (Lonza, #DE14-801F) and 200 μg/mL of G418 (Tocris, #4131) at 37° C. and 5% CO2. Fresh media without the selection marker was added on the day immediately before the experiment to stop selection pressure. cAMP inhibition and antagonist IC50 determination were accessed using the LANCE® Ultra cAMP Kit from PerkinElmer® (#TRF0262) on white half area 96 well plates (PerkinElmer®, #6005560). The assays were conducted in two different stimulation buffers: • a) normal with 1×HBSS (Gibco®, #141750-95), 5 mM HEPES (Lonza, #BE17-737E), 0.1% BSA and 25 μM Rolipram and • b) HSA with 1×HBSS (Gibco®, #141750-95), 5 mM HEPES (Lonza, #BE17-737E), 2% Human Serum Albumin (Sigma-Aldrich®—A1653), 30 μM of EHNA (Tocris—#1261) and 100 μM Rolipram. Stimulation buffer b) mimics the human situation by increasing the amount of albumin present in the assay. Compounds of the present invention were diluted 100× in either of the buffers depending on the assay performed. A total of 1000 cells per well were pre-incubated for 10 minutes with the compounds of the present invention before adding the corresponded EC80 of A2A agonist (3 nM of NECA in normal buffer) or 5 μM of Adenosine (in HAS buffer) for a total reaction time of 30 minutes. The total volume of the reaction was 20 μl (10 μl of cells, 5 μl of antagonist and 5 μl of agonist). The reaction was finalized by adding 10 μl of 4×EU-cAMP tracer working solution and 10 μl of 4× ULight-anti-cAMP working solution. The TR-FRET signal was measured after 1 hour using a Spectramax Paradigm (Molecular Devices).

[1] = Permeability and efflux in Caco-2 cells; assay type: in vitro ADME; settings: human, Caco-2 monolayer, bidirectional transport, pH 7.4
Experimental: The transport buffer (TB, pH 7.4) used in the study is Hank's Buffered Saline Solution (HBSS, Gibco, Cat #14025-076) with 10 mM HEPES at pH 7.4. Fetal bovine serum (FBS) (Corning, Cat #Corning-35-076-CV, or other vendors), Minimum Essential Media (MEM) (Gibco, Cat #41500-034) as well as its supplements are purchased from Invitrogen (Carlsbad, Calif., USA). Caco-2 cell line (Cat #HTB-37) is purchased from the ATCC (Rockville, Md., USA). The organic solvents used in the study are purchased from Sigma Aldrich (St. Louis, Mo., USA). For reference compounds (fenoterol, propranolol and digoxin) and test compounds, 0.4 mM intermediate solutions are prepared by diluting 10 mM or other appropriate concentrations of DMSO stock solutions with DMSO. 2 μM dosing solutions for reference compounds and test compounds are prepared by spiking the appropriate volume of intermediate solution to TB with and without 1 μM Zosuquidar. The final concentration of DMSO is no more than 1% (v/v). Caco-2 cells are grown in MEM supplemented with 2 mM L-glutamine, 10% FBS, 100 U/mL penicillin-G and 100 μg/mL streptomycin. The cells are incubated at 37° C., 5% CO2 and relatively saturated humidity. After reaching 80-90% confluency, the cells are gently detached with 0.05% trypsin-EDTA solution. Cells at passage 30-50 are seeded on the 96-well BD insert system (Cat #359274) at the density of 1×10^5 cells/cm2 and cultured for 21-28 days with medium changed every 4-5 days. TB and dosing solutions were pre-warmed to 37° C. before transport assay. The cell monolayer was washed twice with HBSS containing 10 mM HEPES. For A-B (apical to basolateral) directional transport assay, 75 μL dosing solution is added to the apical well. Fill each basolateral well with 250 μL TB. For B-A (basolateral to apical) directional transport assay, 250 μL of dosing solution is added to the basolateral well after filling each apical well with 75 μL TB. Test compound(s) and digoxin are tested at 2 μM in the presence or absence of 1 μM zosuquidar bidirectionally in duplicate. Atenolol and propranolol are tested at 2 μM in the absence of zosuquidar in A to B direction in duplicate. The plates are incubated for 120 minutes at 37° C. with 5% C02 and saturated humidity. The time zero samples are generated by mixing 50 μL initial dosing solution of test compound or reference compound with 100 μL TB and 250 μL quench solution (acetonitrile (ACN) or other appropriate solvent with internal standard(s), based on the bioanalytical method development). At 120 minutes, 150 μL of solution is collected from each A-B receiver well followed by addition of 250 μL quench solution to get A-B receiver sample. And for other samples (A-B donor, B-A donor and receiver), 50 μL of solution is collected from each corresponding well followed by addition of 250 μL quench solution and 100 μL TB. All samples are vortex-mixed and centrifuged at 3220 g for 20 minutes. Subsequently, supernatant is diluted with ultra pure water for LC-MS/MS analysis. The concentrations of test compound in all samples are determined by LC-MS/MS and expressed as peak area ratio of analyte to internal standard. The concentration of samples is expressed using the peak area ratio of Analyte to Internal Standard (Analyte/IS). The apparent permeability coefficient (Papp) is calculated using the following equation: Papp=VR/(Area*Time)*(CR/C0) wherein VR is the solution volume in the receiver chamber (0.075 mL on the apical side, 0.25 mL on the basolateral side); Area is the surface area for the transport, i.e. 0.0804 cm2 for the area of the monolayer; Time is incubation time, expressed in seconds, 2 h=2×3600 s; C0 is the initial concentration in the donor chamber; CR is the final concentrations in receiver chamber. The efflux ratio is calculated using the following equation: Efflux ratio=[…]) where Papp (A-B) and Papp (B-A) are the Papp values of compound in Apical to Basolateral and Basolateral to Apical directional transport, respectively.

[2] = HSA stimulation buffer, 5 μM Adenosine as agonist, 2.0% HSA, read-out: IC50 (nM) (5 μM Adenosine as agonist, 2.0% HSA)
[3] = normal stimulation buffer, 3 nM NECA as agonist, 0.1% BSA, read-out: IC50 (nM) (3 nM NECA as agonist, 0.1% BSA)

T1 sequence (P29274 whole entry): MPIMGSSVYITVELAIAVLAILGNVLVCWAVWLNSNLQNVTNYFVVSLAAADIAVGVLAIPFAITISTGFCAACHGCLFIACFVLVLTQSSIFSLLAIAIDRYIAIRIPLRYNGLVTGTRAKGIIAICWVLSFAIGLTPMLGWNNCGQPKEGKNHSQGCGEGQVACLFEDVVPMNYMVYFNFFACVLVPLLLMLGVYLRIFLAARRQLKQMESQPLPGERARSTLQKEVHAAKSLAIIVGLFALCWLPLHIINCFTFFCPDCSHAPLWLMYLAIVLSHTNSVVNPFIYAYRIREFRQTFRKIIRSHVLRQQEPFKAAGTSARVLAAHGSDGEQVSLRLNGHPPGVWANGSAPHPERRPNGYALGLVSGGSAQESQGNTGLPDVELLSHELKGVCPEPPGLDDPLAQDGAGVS

Structure (SMILES)	IC50 (A2A receptor; [2])	IC50 (A2A receptor; [3])	efflux ratio at 120 min, 2 μM [1]
C[S@@+]([O-])CCOc1cc(N2CCN(CCNc3nc(N)n4nc(-c5ccco5)nc4n3)CC2)c(F)cc1F [Compound 11, (R)—N5-(2-(4-(2,4-difluoro-5-(2-(methylsulfinyl)ethoxy)phenyl)piperazin-1-yl)ethyl)-2-(furan-2-yl)-[1,2,4]triazolo[1,5-a][1,3,5]triazine-5,7-diamine]	41 nM	0.4 nM	> 600
C[S@+]([O-])CCOc1cc(N2CCN(CCn3ncc4c3nc(N)n3nc(-c5ccco5)nc43)CC2)c(F)cc1F [Compound 12, (S)-7-(2-(4-(2,4-difluoro-5-(2-(methylsulfinyl)ethoxy)phenyl)piperazin-1-yl)ethyl)-2-(furan-2-yl)-7H-pyrazolo[4,3-e][1,2,4]triazolo[1,5-c]pyrimidin-5-amine]	162 nM	0.4 nM	> 140
C[S@@+]([O-])CCOc1cc(N2CCN(CCn3ncc4c3nc(N)n3nc(-c5ccco5)nc43)CC2)c(F)cc1F [Compound 13, (R)-7-(2-(4-(2,4-difluoro-5-(2-(methylsulfinyl)ethoxy)phenyl)piperazin-1-yl)ethyl)-2-(furan-2-yl)-7H-pyrazolo[4,3-e][1,2,4]triazolo[1,5-c]pyrimidin-5-amine]	131 nM	0.5 nM	> 100
Nc1nc(NCCN2CCN(c3cc(O[C@H]4CC[S@@+]([O-])CC4)c(F)cc3F)CC2)nc2nc(-c3ccco3)nn12 [Compound 14, (1s,4s)-4-(5-(4-(2-((7-amino-2-(furan-2-yl)-[1,2,4]triazolo[1,5-a][1,3,5]triazin-5-yl)amino)ethyl)piperazin-1-yl)-2,4-difluorophenoxy)tetrahydro-2H-thiopyran 1-oxide]	71 nM	0.7 nM	> 900
Nc1nc(NCCN2CCN(c3ccc(C(=O)N4CC[S+]([O-])CC4)cc3F)CC2)nc2nc(-c3ccco3)nn12 [Compound 18, (4-(4-(2-((7-amino-2-(furan-2-yl)-[1,2,4]triazolo[1,5-a][1,3,5]triazin-5-yl)amino)ethyl)piperazin-1-yl)-3-fluorophenyl)(1-oxidothiomorpholino)methanone]	632 nM	0.5 nM	> 80
Nc1nc(NCCN2CCN(c3ccc(O[C@H]4CC[S@@+]([O-])CC4)cc3F)CC2)nc2nc(-c3ccco3)nn12 [Compound 19]	106 nM	0.8 nM	> 110
Cn1c(=O)n(CCN2CCN(c3ccc(OCC[S+](C)[O-])cc3F)CC2)c2nc(N)n3nc(-c4ccco4)nc3c21 (stereo not drawn) [Compound 20, 5-amino-3-(2-(4-(2-fluoro-4-(2-(methylsulfinyl)ethoxy)phenyl)piperazin-1-yl)ethyl)-8-(furan-2-yl)-1-methyl-1H-[1,2,4]triazolo[5,1-i]purin-2(3H)-one]	72 nM	0.4 nM	> 300
Cn1c(=O)n(CCN2CCN(c3cc(OC4CCNC4=O)c(F)cc3F)CC2)c2nc(N)n3nc(-c4ccco4)nc3c21 (stereo not drawn) [Compound 21, 5-amino-3-(2-(4-(2,4-difluoro-5-((2-oxopyrrolidin-3-yl)oxy)phenyl)piperazin-1-yl)ethyl)-8-(furan-2-yl)-1-methyl-1H-[1,2,4]triazolo[5,1-i]purin-2(3H)-one]	178 nM	0.4 nM	> 150

Source: US11427594B2, “Non brain penetrant A2A inhibitors and methods for use in the treatment of cancers” (iTeos Belgium SA, priority 2018, dated 2022)
